Broadly, the Ki is a dissociation constant, usually derived from enzyme kinetics or from competition with a known ligand. A lower Ki goes with a stronger hold on the target. What is called IC50 is the midpoint of a concentration-inhibition curve.

We go through one compound from PMC8078842 (PLoS Neglected Tropical Diseases, 2021).

Assay [1] relates to Corticotropin Releasing Factor, Non-selective. Put plainly: CNS side effect panel, [^125I]Tyr0-oCRF. The format is binding. Particulars: pentamidine 1.0E^-5 M.
Assay [2] has as its system Potassium Channel, ATP-Sensitive. Put plainly: CNS side effect panel, [^3H]Glibenclamide. The class given is binding. Particulars: pentamidine 1.0E^-5 M.
In assay [3] the test system is Norepinephrine Transporter. Put plainly: CNS side effect panel, [^3H]Nisoxetine. Particulars: pentamidine 1.0E^-5 M. The class given is binding.
The next assay deals with GABA A, Agonist Site. Put plainly: CNS side effect panel, [^3H]GABA. Particulars: pentamidine 1.0E^-5 M. The format is binding.
Assay [4] concerns Glutamate, NMDA Agonist Site (Ionotropic). Put plainly: CNS side effect panel, [^3H]CGP 39653. The format is binding. The conditions noted are these: pentamidine 1.0E^-5 M.
Assay [5] deals with Muscarinic, Non-selective, Central. Put plainly: CNS side effect panel, [^3H]QNB. The class given is binding.
The subject of assay [6] is Trypanosoma brucei blood stream form trypomastigotes (T. b. brucei strain S427). Put plainly: Trypanocidal activity in vitro (Alamar Blue). The format is cell-based.
Assay [7] has as its system fibrinogen binding to GP11b/IIIa. The conditions noted are these: Inhibits fibrinogen binding to GP11b/IIIa; cited from earlier work.
The test system of the next assay is Melatonin, Non-selective. Put plainly: CNS side effect panel, [^125I]-2-Iodomelatonin. The class given is binding. The conditions noted are these: pentamidine 1.0E^-5 M.
The subject of the next assay is Angiotensin II, AT2. Put plainly: CNS side effect panel, [^125I]Tyr4-Angiotensin II. The class given is binding. The conditions noted are these: pentamidine 1.0E^-5 M.
The test system of assay [8] is Cholecystokinin, CCK2 (CCKB). Put plainly: CNS side effect panel, [^125I]CCK-8. The format is binding. The conditions noted are these: pentamidine 1.0E^-5 M.
In another assay the test system is Imidazoline2 receptor. Particulars: 3H-idazoxan binding; cited from earlier work.
Assay [9] concerns Glutamate,NMDA,Glycine (Stry-insens Site) (Ionot). Put plainly: CNS side effect panel, [^3H]-MDL-105,519. The format is binding. Particulars: pentamidine 1.0E^-5 M.
The mark [10] stands for this setting: read-out: % of bsf trypomastigotes inhibited.

In the case of `N=C(N)c1ccc(OCCCCCOc2ccc(C(=N)N)cc2)cc1` [Pentamidine, 1,5-bis-4ρ-amidinophenoxypentane], the “Percent Inhibition” value in assay [1] is 17.05%; in assay [2], 6.07%; in [3], 21.39%; with GABA A, Agonist Site, 31.10%; in [4], 5.99%; in assay [5] (pentamidine 1.0E^-5 M), 90.90%. Moreover, the “Percent Inhibition” value in the assay on Melatonin, Non-selective was 23.45%; in the assay with Angiotensin II, AT2, 2.96%; in assay [8] it was 0.09%; in assay [9], -17.52%. In addition, the affinity in assay [5] (Muscarinic (central), concentration-response), expressed as Ki, was 281 nM. Also, the inhibition at 5.7 pM in assay [6] (setting [10]) was found to be 4.1%. Besides, the inhibition at 17 pM in assay [6] (setting [10]) is 35%. For the same compound, in assay [6] (setting [10]), the inhibition at 51 pM is 65.3%. Moreover, the inhibition at 0.3 µM in [6] (setting [10]) is 97.4%. Moreover, the inhibition at 1 µM in assay [6] (setting [10]) was 98.3%. The IC50 in [6] (read-out: IC50 (± 95% CI) of pentamidine) amounted to 0.0211 nM. Further, the Affinity in [7] is 1.1 µM; with Imidazoline2 receptor, 0.014 µM.
